Assay results published in patent US20130225583A1, “SUBSTITUTED AMINO-TRIAZOLYL PDE10 INHIBITORS” (priority 2010, published 2013).

Target: T1, human PDE10A2 (Homo sapiens, UniProt Q9Y233)
T1 construct: made in house; host or cells: AD293 cells, transiently transfected; The cytosolic supernatant of the lysate served as the enzyme
Test: PDE10 fluorescence polarization (IMAP FP) inhibition assay
Format: biochemical
Conditions: apparent inhibition constant; FAM-labeled cAMP 50 nM; lysate of AD293 cells transfected with human PDE10A2; room temperature; read-out: PDE10a Ki
Protocol: The activity of the compounds in accordance with the present invention as PDE10 inhibitors may be readily determined without undue experimentation using a fluorescence polarization (FP) methodology that is well known in the art (Huang, W., et al., J. Biomol Screen, 2002, 7: 215).
In a typical experiment the PDE 10 inhibitory activity of the compounds of the present invention was determined in accordance with the following experimental method. PDE 10A2 was amplified from human fetal brain cDNA (Clontech, Mountain View, Calif.) using a forward primer corresponding to nucleotides 56-77 of human PDE10A2 (Accession No. AF127480, Genbank Identifier 4894716), containing a Kozak consensus sequence, and a reverse primer corresponding to nucleotides 2406-2413 of human PDE10A2 (Accession No. AF127480, Genbank Identifier 4894716). Amplification with Easy-A polymerase (Stratagene, La Jolla, Calif.) was 95° C. for 2 minutes followed by thirty three cycles of 95° C. for 40 seconds, 55° C. for 30 seconds, and 72° C. for 2 minutes 48 seconds. Final extension was 72° C. for 7 minutes. The PCR product was TA cloned into pcDNA3.2-TOPO (Invitrogen, Carlsbad, Calif.) according to standard protocol. AD293 cells with 70-80% confluency were transiently transfected with human PDE10A2/pcDNA3.2-TOPO using Lipofectamine 2000 according to manufacturer specifications (Invitrogen, Carlsbad, Calif.). Cells were harvested 48 hours post-transfection and lysed by sonication (setting 3, 10×5 sec pulses) in a buffer containing 20 mM HEPES, 1 mM EDTA and protease inhibitor cocktail (Roche). Lysate was collected by centrifugation at 75,000×g for 20 minutes. Supernatant containing the cytoplasmic fraction was used for evaluation of PDE10A2 activity. The fluorescence polarization assay for cyclic nucleotide phosphodiesterases was performed using an IMAP® FP kit supplied by Molecular Devices, Sunnyvale, Calif. (product # R8139). IMAP® technology has been applied previously to phosphodiesterase assays (Huang, W., et al., J. Biomol Screen, 2002, 7: 215). Assays were performed at room temperature in 384-well microtiter plates with an incubation volume of 20.2 μL. Solutions of test compounds were prepared in DMSO and serially diluted with DMSO to yield 8 μL of each of 10 solutions differing by 3-fold in concentration, at 32 serial dilutions per plate. 100% inhibition is determined using a known PDE 10 inhibitor, which can be any compound that is present at 5,000 times its Ki value in the assay described as follows, such as papaverine (see Siuciak, et al. Neuropharmacology (2006) 51:386-396; Becker, et al. Behav Brain Res (2008) 186(2):155-60; Threlfell, et al., J Pharmacol Exp Ther (2009) 328(3):785-795), 2-{4-[pyridin-4-yl-1-(2,2,2-trifluoroethyl)-1H-pyrazol-3-yl]phenoxymethyl}quinoline succinic acid or 2-[4-(1-methyl-4-pyridin-4-yl-1H-pyrazol-3-yl)-phenoxymethyl]quinoline succinic acid (see Schmidt, et al. J Pharmacol Exp Ther (2008) 325:681-690; Threlfell, et al., J Pharmacol Exp Ther (2009) 328(3): 785-795). 0% of inhibition is determined by using DMSO (1% final concentrations). A Labcyte Echo 555 (Labcyte, Sunnyvale, Calif.) is used to dispense 200 nL from each well of the titration plate to the 384 well assay plate. A solution of enzyme ( 1/7000 dilution from aliquots; sufficient to produce 20% substrate conversion) and a separate solution of FAM-labeled cAMP PDE from Molecular Devices (product # R7506), at a final concentration of 50 nM are made in the assay buffer (10 mM Tris HCl, pH 7.2, 10 mM MgCl2, 0.05% NaN3 0.01% Tween-20, and 1 mM DTT). The enzyme is added to the assay plates by the addition of 10 μL of enzyme solution to each well, shaken to mix and incubated at room temperature for 60 minutes. The substrate is then added to the assay plates by the addition of 10 μL of substrate solution to each well, shaken to mix, and incubated at room temperature for 60 minutes. […]

T1 sequence (Q9Y233 267-1055): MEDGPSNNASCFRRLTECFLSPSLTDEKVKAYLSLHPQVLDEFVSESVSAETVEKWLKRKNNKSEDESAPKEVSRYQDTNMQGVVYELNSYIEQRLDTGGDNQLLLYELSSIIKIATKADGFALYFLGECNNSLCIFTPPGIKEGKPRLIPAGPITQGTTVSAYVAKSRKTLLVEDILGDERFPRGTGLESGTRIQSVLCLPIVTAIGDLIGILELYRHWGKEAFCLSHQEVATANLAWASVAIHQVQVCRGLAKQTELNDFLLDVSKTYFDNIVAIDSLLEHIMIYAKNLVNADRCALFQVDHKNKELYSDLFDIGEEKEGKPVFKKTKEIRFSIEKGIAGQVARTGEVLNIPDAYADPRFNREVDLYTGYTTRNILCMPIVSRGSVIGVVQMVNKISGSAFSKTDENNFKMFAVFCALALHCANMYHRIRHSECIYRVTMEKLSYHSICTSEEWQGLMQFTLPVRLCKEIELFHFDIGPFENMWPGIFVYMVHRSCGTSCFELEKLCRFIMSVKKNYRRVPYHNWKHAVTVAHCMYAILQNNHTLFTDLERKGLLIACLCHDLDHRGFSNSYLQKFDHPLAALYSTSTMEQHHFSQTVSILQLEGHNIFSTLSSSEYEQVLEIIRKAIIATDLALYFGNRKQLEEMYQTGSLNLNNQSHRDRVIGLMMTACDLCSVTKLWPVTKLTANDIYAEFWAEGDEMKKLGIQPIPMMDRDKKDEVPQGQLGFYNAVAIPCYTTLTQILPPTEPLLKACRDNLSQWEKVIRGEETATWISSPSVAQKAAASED

| Compound | Ki |
| --- | --- |
| COc1ccc(Cc2nc(N)nn2-c2cc(OCc3ccc(-c4ccncc4)cc3)ncn2)cc1OC [1-42, 5-(3,4-dimethoxybenzyl)-1-(6-(4-(pyridin-4-yl)benzyloxy)pyrimidin-4-yl)-1H-1,2,4-triazol-3-amine] | 270 nM |
| CCCOc1cc(-n2nc(N)nc2Cc2ccc(OC)c(OC)c2)ncn1 [1-63, 5-(3,4-dimethoxybenzyl)-1-(6-propoxypyrimidin-4-yl)-1H-1,2,4-triazol-3-amine] | 35 nM |
| COc1ccc(Cc2nc(N)nn2-c2ccccn2)cc1OC [1-14, 5-(3,4-dimethoxybenzyl)-1-(pyridin-2-yl)-1H-1,2,4-triazol-3-amine] | 250 nM |
| COc1ccc(Cc2nc(N)nn2-c2cc(OCC3CC3c3ccccc3)ncn2)cc1OC (stereo not shown) [1-67, 5-(3,4-dimethoxybenzyl)-1-(6-((2-phenylcyclopropyl)methoxy)pyrimidin-4-yl)-1H-1,2,4-triazol-3-amine] | 320 nM |
| COc1ccc(Cc2nc(N)nn2-c2cc(Oc3cccnc3)nc(C)n2)cc1OC [1-79, 5-(3,4-dimethoxybenzyl)-1-(2-methyl-6-(pyridin-3-yloxy)pyrimidin-4-yl)-1H-1,2,4-triazol-3-amine] | 130 nM |
| COc1ccc(Cc2nc(N)nn2-c2cc(=O)n(CC3(c4ccccc4)CC3(F)F)cn2)cc1OC (stereo not shown) [1-59, 6-(3-amino-5-(3,4-dimethoxybenzyl)-1H-1,2,4-triazol-1-yl)-3-((2,2-difluoro-1-phenylcyclopropyl)methyl)pyrimidin-4(3H)-one] | 220 nM |
| COc1ccc(Cc2nc(N)nn2-c2cc(OCC(C)(C)C)ncn2)cc1OC [1-64, 5-(3,4-dimethoxybenzyl)-1-(6-(neopentyloxy)pyrimidin-4-yl)-1H-1,2,4-triazol-3-amine] | 13 nM |
| COc1ccc(Cc2nc(N)nn2-c2cc(OCCN3CCNC3=O)ncn2)cc1OC [1-44, 1-(2-(6-(3-amino-5-(3,4-dimethoxybenzyl)-1H-1,2,4-triazol-1-yl)pyrimidin-4-yloxy)ethyl)imidazolidin-2-one] | 18 nM |
| COc1ccc(Cc2nc(N)nn2-c2cc(Oc3ccc4ccccc4n3)nc(C)n2)cc1OC [1-83, 3-amino-5-(3,4-dimethoxybenzyl)-1-(2-methyl-6-(quinolin-2-yloxy)pyrimidin-4-yl)-1H-1,2,4-triazole-2,4-diium] | 47 nM |
| COc1ccc(Cc2nc(N)nn2-c2cc(C)cc(C)c2)cc1OC [1-17, 5-(3,4-dimethoxybenzyl)-1-(3,5-dimethylphenyl)-1H-1,2,4-triazol-3-amine] | 101 nM |
| COc1ccc(Cc2nc(N)nn2-c2cc(OCc3nc4ccccc4[nH]3)ncn2)cc1OC [1-40, 1-(6-((1H-benzo[d]imidazol-2-yl)methoxy)pyrimidin-4-yl)-5-(3,4-dimethoxybenzyl)-1H-1,2,4-triazol-3-amine] | 19 nM |
| COc1ccc(Cc2nc(N)nn2-c2cc(=O)n(Cc3ccccn3)cn2)cc1OC [1-49, 6-(3-amino-5-(3,4-dimethoxybenzyl)-1H-1,2,4-triazol-1-yl)-3-(pyridin-2-ylmethyl)pyrimidin-4(3H)-one] | < 3.8 nM |
| COc1ccc(Cc2nc(N)nn2-c2cc(=O)n(Cc3nc4ccccc4[nH]3)cn2)cc1OC [1-54, 3-((1H-benzo[d]imidazol-2-yl)methyl)-6-(3-amino-5-(3,4-dimethoxybenzyl)-1H-1,2,4-triazol-1-yl)pyrimidin-4(3H)-one] | 390 nM |
| COc1ccc(CNc2nc(Cc3ccc(OC)c(OC)c3)n(-c3cc(Oc4ccccn4)nc(C)n3)n2)cc1 [1-76, 5-(3,4-dimethoxybenzyl)-N-(4-methoxybenzyl)-1-(2-methyl-6-(pyridin-2-yloxy)pyrimidin-4-yl)-1H 1,2,4-triazol-3-amine] | < 3.8 nM |
| COc1ccc(Cc2nc(N)nn2-c2ccc(Cl)c(Cl)c2)cc1OC [1-16, 1-(3,4-dichlorophenyl)-5-(3,4-dimethoxybenzyl)-1H-1,2,4-triazol-3-amine] | 153 nM |
| COc1ccc(Cc2nc(N)nn2-c2cc(OC3Cc4ccccc4C3)ncn2)cc1OC [1-39, 1-(6-(2,3-dihydro-1H-inden-2-yloxy)pyrimidin-4-yl)-5-(3,4-dimethoxybenzyl)-1H-1,2,4-triazol-3-amine] | 970 nM |
| COc1ccc(Cc2nc(N)nn2-c2cc(=O)n(Cc3cnc(N4CCNCC4)cn3)cn2)cc1OC [1-58, 6-(3-amino-5-(3,4-dimethoxybenzyl)-1H-1,2,4-triazol-1-yl)-3-((5-(piperazin-1-yl)pyrazin-2-yl)methyl)pyrimidin-4(3H)-one] | 37 nM |
| COc1ccc(Cc2nc(N)nn2-c2cc(OCC3(c4ccccc4)CC3(F)F)ncn2)cc1OC (stereo not shown) [1-46, 1-(6-((2,2-difluoro-1-phenylcyclopropyl)methoxy)pyrimidin-4-yl)-5-(3,4-dimethoxybenzyl)-1H-1,2,4-triazol-3-amine] | 5.6 nM |
| COc1ccc(Cc2nc(N)nn2-c2cc(OCc3cn4ccccc4n3)ncn2)cc1OC [1-41, 5-(3,4-dimethoxybenzyl)-1-(6-(imidazo[1,2-a]pyridin-2-ylmethoxy)pyrimidin-4-yl)-1H-1,2,4-triazol-3-amine] | 180 nM |
